Laboratory results taken from ChEMBL document CHEMBL3714769, “Heterocyclic compounds for the inhibition of pask” (2014).

Target: PAS domain-containing serine/threonine-protein kinase (Homo sapiens, UniProt Q96RG2)
Assay: Inhibition of human recombinant PASK using Ulight-peptide substrate incubated for 2 hrs by TR-FRET assay

PAS domain-containing serine/threonine-protein kinase, sequence (Q96RG2 whole entry, the tested form may be a part): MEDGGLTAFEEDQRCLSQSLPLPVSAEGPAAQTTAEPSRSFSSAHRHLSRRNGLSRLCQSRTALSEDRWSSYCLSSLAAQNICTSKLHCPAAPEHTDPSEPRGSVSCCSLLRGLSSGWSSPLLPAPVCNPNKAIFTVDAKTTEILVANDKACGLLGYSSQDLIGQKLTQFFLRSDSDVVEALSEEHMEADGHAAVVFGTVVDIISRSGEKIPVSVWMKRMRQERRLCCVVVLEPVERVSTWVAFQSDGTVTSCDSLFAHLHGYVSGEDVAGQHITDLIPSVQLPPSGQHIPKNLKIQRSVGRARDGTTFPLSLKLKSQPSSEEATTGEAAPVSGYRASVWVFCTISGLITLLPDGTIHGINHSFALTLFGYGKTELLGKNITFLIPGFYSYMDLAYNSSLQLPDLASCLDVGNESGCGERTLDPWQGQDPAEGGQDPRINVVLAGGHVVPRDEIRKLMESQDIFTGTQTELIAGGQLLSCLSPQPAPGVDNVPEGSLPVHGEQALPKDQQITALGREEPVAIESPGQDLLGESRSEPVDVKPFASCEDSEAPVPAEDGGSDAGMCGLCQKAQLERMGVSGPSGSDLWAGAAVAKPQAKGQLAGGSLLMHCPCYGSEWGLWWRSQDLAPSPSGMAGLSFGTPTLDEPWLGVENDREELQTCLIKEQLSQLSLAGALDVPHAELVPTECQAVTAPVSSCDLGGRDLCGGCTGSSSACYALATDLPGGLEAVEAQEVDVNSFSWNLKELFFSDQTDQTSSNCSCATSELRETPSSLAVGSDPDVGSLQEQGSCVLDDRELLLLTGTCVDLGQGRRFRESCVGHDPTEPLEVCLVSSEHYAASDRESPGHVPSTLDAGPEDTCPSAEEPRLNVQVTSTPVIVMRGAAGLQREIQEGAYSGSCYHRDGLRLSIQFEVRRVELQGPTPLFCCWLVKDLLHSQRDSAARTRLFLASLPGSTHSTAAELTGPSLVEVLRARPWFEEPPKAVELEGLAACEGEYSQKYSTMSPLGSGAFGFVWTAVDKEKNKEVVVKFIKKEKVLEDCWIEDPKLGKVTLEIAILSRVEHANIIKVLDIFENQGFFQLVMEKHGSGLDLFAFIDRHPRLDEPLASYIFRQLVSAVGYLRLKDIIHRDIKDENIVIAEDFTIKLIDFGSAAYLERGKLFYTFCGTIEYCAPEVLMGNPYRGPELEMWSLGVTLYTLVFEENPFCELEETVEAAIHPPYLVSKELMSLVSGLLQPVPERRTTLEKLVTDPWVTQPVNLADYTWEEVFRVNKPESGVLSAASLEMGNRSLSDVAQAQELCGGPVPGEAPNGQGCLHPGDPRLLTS

| IC50 | SMILES |
| --- | --- |
| ≤ 10 µM | COc1cc(-c2cc(=O)n3nc(-c4ccc(F)cc4)nc3[nH]2)ccc1Cl |
| ≤ 10 µM | O=c1cc(-c2ccc3[nH]nnc3c2)[nH]c2nc(-c3ccc(Cl)c(Cl)c3)nn12 |
